# Laboratory results from ChEMBL document CHEMBL2150911, “Charting, navigating, and populating natural product chemical space for drug discovery” (J Med Chem, 2012).
# What was measured:
# [1] = biological target: T1, Polyunsaturated fatty acid 5-lipoxygenase (Homo sapiens, UniProt P09917); assay: Inhibition of 5-LOX
# T1 sequence (P09917 whole entry): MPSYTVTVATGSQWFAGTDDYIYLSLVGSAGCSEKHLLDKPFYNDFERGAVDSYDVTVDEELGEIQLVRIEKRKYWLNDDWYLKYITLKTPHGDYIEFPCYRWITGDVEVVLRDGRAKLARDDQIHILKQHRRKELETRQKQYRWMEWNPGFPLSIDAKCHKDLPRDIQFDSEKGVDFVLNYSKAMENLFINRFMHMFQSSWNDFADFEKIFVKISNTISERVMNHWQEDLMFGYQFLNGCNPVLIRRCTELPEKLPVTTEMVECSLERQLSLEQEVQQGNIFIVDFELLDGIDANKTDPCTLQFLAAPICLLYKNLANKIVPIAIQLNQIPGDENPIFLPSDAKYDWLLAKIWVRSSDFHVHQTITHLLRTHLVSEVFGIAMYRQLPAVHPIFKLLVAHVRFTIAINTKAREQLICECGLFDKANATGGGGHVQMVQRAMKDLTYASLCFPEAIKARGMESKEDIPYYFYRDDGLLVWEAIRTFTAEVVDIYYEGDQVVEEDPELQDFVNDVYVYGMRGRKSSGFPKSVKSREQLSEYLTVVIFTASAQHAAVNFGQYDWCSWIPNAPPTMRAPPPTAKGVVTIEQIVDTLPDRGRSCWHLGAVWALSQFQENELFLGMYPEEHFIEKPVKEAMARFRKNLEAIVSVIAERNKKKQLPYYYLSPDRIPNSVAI
# [2] = biological target: T2, M-phase inducer phosphatase 1 (Homo sapiens, UniProt P30304); assay: Inhibition of His-tagged Cdc25A expressed in the Escherichia coli BL21(DE3) using p-nitrophenyl phosphate as substrate for 80 mins by spectrophotometry
# T2 sequence (P30304 whole entry): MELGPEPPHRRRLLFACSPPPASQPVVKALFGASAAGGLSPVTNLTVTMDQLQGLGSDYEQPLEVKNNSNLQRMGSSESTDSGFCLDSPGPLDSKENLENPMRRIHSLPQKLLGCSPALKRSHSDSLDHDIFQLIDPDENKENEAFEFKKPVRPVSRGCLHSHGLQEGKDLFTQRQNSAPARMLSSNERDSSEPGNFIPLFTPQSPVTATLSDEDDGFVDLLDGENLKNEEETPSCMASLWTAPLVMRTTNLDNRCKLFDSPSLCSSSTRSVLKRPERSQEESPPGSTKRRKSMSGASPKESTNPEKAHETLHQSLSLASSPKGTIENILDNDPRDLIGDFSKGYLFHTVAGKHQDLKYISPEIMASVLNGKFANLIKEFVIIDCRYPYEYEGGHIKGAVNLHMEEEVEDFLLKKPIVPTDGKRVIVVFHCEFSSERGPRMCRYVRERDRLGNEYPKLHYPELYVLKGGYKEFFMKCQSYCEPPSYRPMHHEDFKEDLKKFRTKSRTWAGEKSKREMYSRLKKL
IC50 [1],IC50 [2],Compound
7.5 µM,–,c1ccc(COc2ccc3ccccc3c2)cc1
1.5 µM,–,COC1(c2cccc(COc3ccc4ccccc4c3)c2)CCOCC1
–,22.3 µM,COC(=O)[C@@H]1[C@H]2C[C@H]3c4[nH]c5ccccc5c4CCN3C[C@@H]2CC[C@@H]1O [YOHIMBINE]
0.36 µM,–,CC(c1ccc(OCc2ccccc2)cc1)N(O)C(N)=O (centres undefined)
